The text below walks through data of US20120213758A1, “BIARYL PDE4 INHIBITORS FOR TREATING PULMONARY AND CARDIOVASCULAR DISORDERS” (DeCODE Genetics enf, priority 2007, published 2012).

One assay addresses hPDE4B (Homo sapiens, UniProt Q07343). The assay is described as follows: In-vitro real-time enzyme-coupled spectrophotometric assay for PDE4 enzymes (hPDE4B).
For the next assay, the target named is hPDE4D (Homo sapiens, UniProt Q08499). The assay is described as follows: In-vitro real-time enzyme-coupled spectrophotometric assay for PDE4 enzymes (hPDE4D).

Each structure is given as a SMILES string. Counter-ions that a name gives are not always drawn. Like-named read-outs stand apart in the source and are kept apart here.

hPDE4D, sequence (Q08499 whole entry): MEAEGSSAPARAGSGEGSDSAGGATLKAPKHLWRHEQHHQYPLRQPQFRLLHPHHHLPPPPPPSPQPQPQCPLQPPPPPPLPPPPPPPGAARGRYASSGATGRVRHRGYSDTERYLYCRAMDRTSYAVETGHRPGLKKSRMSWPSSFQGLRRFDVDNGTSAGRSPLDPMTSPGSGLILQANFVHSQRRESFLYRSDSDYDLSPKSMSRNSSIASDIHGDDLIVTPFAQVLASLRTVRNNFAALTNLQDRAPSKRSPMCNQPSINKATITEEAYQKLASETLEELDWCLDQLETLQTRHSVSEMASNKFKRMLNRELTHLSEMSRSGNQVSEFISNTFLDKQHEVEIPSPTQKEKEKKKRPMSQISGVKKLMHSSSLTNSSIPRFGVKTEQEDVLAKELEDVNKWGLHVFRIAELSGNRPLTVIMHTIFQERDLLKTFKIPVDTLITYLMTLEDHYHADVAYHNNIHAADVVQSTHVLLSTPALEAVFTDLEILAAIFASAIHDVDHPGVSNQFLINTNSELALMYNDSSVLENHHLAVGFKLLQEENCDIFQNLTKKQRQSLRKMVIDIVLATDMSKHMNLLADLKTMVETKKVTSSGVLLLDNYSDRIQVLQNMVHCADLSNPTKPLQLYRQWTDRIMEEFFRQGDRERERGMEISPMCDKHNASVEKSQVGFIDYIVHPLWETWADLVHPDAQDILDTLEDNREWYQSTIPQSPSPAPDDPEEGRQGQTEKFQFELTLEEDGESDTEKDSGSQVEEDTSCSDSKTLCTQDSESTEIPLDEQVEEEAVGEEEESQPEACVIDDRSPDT
hPDE4B, sequence (Q07343 whole entry): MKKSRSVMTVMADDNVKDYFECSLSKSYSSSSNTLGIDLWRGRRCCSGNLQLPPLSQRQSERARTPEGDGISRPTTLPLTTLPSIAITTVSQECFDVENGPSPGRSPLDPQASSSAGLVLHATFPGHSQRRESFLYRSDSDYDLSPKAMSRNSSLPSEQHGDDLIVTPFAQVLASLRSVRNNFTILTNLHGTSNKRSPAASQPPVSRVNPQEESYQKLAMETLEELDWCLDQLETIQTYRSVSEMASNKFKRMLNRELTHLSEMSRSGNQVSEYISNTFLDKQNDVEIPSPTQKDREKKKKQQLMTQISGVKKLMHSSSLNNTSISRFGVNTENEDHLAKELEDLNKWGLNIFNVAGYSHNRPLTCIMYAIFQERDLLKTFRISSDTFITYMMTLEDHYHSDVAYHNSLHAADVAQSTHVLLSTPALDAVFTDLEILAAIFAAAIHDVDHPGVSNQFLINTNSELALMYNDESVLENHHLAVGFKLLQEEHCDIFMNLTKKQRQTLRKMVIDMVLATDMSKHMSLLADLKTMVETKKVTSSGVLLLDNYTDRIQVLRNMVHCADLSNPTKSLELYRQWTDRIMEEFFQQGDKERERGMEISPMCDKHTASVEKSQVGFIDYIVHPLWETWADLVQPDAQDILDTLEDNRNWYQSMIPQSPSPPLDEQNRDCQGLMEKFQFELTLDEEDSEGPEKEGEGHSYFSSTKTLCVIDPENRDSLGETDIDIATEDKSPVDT

Regarding `COc1ccc(Cc2nnc(NC(=O)NCCC(=O)O)s2)c(F)c1-c1cccc(Cl)c1` [Example A-027, 3-{3-[5-(3′-Chloro-2-fluoro-6-methoxy-biphenyl-3-ylmethyl)-[1,3,4]thiadiazol-2-yl]-ureido}-propionic acid], the IC50 was 20 to 40 µM on hPDE4B and below 5 µM against hPDE4D.
Taken in the same sequence, the figures for `COc1ccc(Cc2ccc(NC(=O)NCC(=O)O)nc2)c(F)c1-c1cccc(Cl)c1` [Example A-028] were below 5 µM and below 5 µM.
Taken in the same sequence, the figures for `CCOC(=O)CCCNC(=O)Nc1nnc(Cc2ccc(OC)c(-c3cccc(Cl)c3)c2F)s1` [Example A-030, 4-{3-[5-(3′-Chloro-2-fluoro-6-methoxy-biphenl-3-ylmethyl)-[1,3,4]thiadiazol-2-yl]-ureido}-butyric acid ethyl ester] were 5 to 20 µM and below 5 µM.
In the same order, the values of `COc1ccc(Cc2nnc(NC(=O)NCCCC(=O)O)s2)c(F)c1-c1cccc(Cl)c1` [Example A-031, 4-{3-[5-(3′-Chloro-2-fluoro-6-methoxy-biphenyl-3-ylmethyl)-[1,3,4]thiadiazol-2-yl]-ureido}-butyric acid] are 5 to 20 µM and below 5 µM.
`COc1ccc(Cc2ccc(NC(=O)NCCC(=O)O)nc2)c(F)c1-c1cccc(Cl)c1` [Example A-032]: the results for the IC50 against hPDE4B and against hPDE4D were 5 to 20 µM and below 5 µM, respectively.
In the same order, the values of `COc1ccc(Cc2ccc(C(=O)N3CCC(C(=O)O)CC3)nc2)c(F)c1-c1cccc(Cl)c1` [Example A-034, 1-[5-(3′-Chloro-2-fluoro-6-methoxy-biphenyl-3-ylmethyl)-pyridine-2-carbonyl]-piperidine-4-carboxylic acid] are 20 to 40 µM and below 5 µM.
Taken in the same sequence, the figures for `COc1ccc(Cc2ccc(NCC(=O)O)nc2)c(F)c1-c1cccc(Cl)c1` [Example A-035, [5-(3′-chloro-2-fluoro-6-methoxy-biphenyl-3-ylmethyl)-pyridin-2-ylamino]-acetic acid] were below 5 µM and below 5 µM.
In the same order, the values of `COc1ccc(Cc2ccc(O)nc2)c(F)c1-c1cccc(Cl)c1` [Example A-036] are below 5 µM and below 5 µM.
Turning to `COc1ccc(Cc2ccc(N(CC(=O)O)C(C)=O)nc2)c(F)c1-c1cccc(Cl)c1` [Example A-037, {acetyl-[5-(3′-chloro-2-fluoro-6-methoxy-biphenyl-3-ylmethyl)-pyridin-2-yl]-amino}-acetic acid], the IC50 on hPDE4B and against hPDE4D was below 5 µM throughout.
For the molecule `COc1ccc(Cc2ccc(C(=O)N3CCC(C(=O)O)C3)nc2)c(F)c1-c1cccc(Cl)c1` (stereo not shown) [Example A-038, 1-[5-(3′-Chloro-2-fluoro-6-methoxy-biphenyl-3-ylmethyl)-pyridine-2-carbonyl]-pyrrolidine-3-carboxylic acid], the IC50 against hPDE4B and on hPDE4D was below 5 µM in each case.
With `COc1ccc(Cc2cnc(N3CCCC3C(=O)O)nc2)c(F)c1-c1cccc(Cl)c1` (stereo not shown) [Example A-040, 1-[5-(3′-Chloro-2-fluoro-6-methoxy-biphenyl-3-ylmethyl)-pyrimidin-2-yl]-pyrrolidine-2-carboxylic acid], the IC50 on hPDE4B and against hPDE4D was below 5 µM throughout.
With `COc1ccc(Cc2ccc(-c3nnn[nH]3)nc2)c(F)c1-c1cccc(Cl)c1` [Example A-042, 5-(3′-Chloro-2-fluoro-6-methoxy-biphenyl-3-ylmethyl)-2-(1H-tetrazol-5-yl)-pyridine], the IC50 against hPDE4B and at hPDE4D was below 5 µM in each case.
For `COc1ccc(Cc2ccc3nc(C(=O)O)cn3c2)c(F)c1-c1cccc(Cl)c1` [Example A-043, 6-(3′-Chloro-2-fluoro-6-methoxy-biphenyl-3-ylmethyl)-imidazo[1,2-a]pyridine-2-carboxylic acid], the IC50 at hPDE4B is 5 to 20 µM; on hPDE4D it was below 5 µM.
In the same order, the values of `COc1ccc(Cc2cnc(N3CCC(C(=O)O)C3)nc2)c(F)c1-c1cccc(Cl)c1` (stereo not shown) [Example A-044, 1-[5-(3′-Chloro-2-fluoro-6-methoxy-biphenyl-3-ylmethyl)-pyrimidin-2-yl]-pyrrolidine-3-carboxylic acid] are 20 to 40 µM and below 5 µM.
Taken in the same sequence, the figures for `COc1ccc(Cc2cnc(N(C)CC(=O)O)nc2)c(F)c1-c1cccc(Cl)c1` [Example A-047, {[5-(3′-Chloro-2-fluoro-6-methoxy-biphenyl-3-ylmethyl)-pyrimidin-2-yl]-methyl-amino}-acetic acid] were below 5 µM and below 5 µM.
Taken in the same sequence, the figures for `CCOC(=O)C(=O)NCc1ccc(Cc2ccc(OC)c(-c3cccc(Cl)c3)c2F)cn1` [Example A-048, N-[5-(3′-Chloro-2-fluoro-6-methoxy-biphenyl-3-ylmethyl)-pyridin-2-ylmethyl]-oxalamic acid ethyl ester] were below 5 µM and below 5 µM.
As for `COc1ccc(Cc2cnc(N3CCC3C(=O)O)nc2)c(F)c1-c1cccc(Cl)c1` (stereo not shown) [Example A-049, 1-[5-(3′-Chloro-2-fluoro-6-methoxy-biphenyl-3-ylmethyl)-pyrimidin-2-yl]-azetidine-2-carboxylic acid], the IC50 against hPDE4B and on hPDE4D was below 5 µM throughout.
With `COc1ccc(Cc2ccc(C(=O)NS(C)(=O)=O)nc2)c(F)c1-c1cccc(Cl)c1` [Example A-050, N-[5-(3′-Chloro-2-fluoro-6-methoxy-biphenyl-3-ylmethyl)-pyridine-2-carbonyl]-methanesulfonamide], the IC50 against hPDE4B and on hPDE4D was below 5 µM each time.
As for `COc1ccc(Cc2ccc3cnc(C(=O)O)n3c2)c(F)c1-c1cccc(Cl)c1` [Example A-051, 6-(3′-Chloro-2-fluoro-6-methoxy-biphenyl-3-ylmethyl)-imidazo[1,5-a]pyridine-3-carboxylic acid hydrochloride], the IC50 on hPDE4B and against hPDE4D was below 5 µM throughout.
As for `COc1ccc(Cc2cnc(N3CC(C(=O)O)C3)nc2)c(F)c1-c1cccc(Cl)c1` [Example A-053, 1-[5-(3′-Chloro-2-fluoro-6-methoxy-biphenyl-3-ylmethyl)-pyrimidin-2-yl]-azetidine-3-carboxylic acid], the IC50 is 5 to 20 µM against hPDE4B and below 5 µM on hPDE4D.
Taken in the same sequence, the figures for `COc1ccc(Cc2ccc(N3CCC3C(=O)O)nc2)c(F)c1-c1cccc(Cl)c1` (stereo not shown) [Example A-054] were below 5 µM and below 5 µM.
In the case of `COc1ccc(Cc2ccc(N(CC(=O)O)C(N)=O)nc2)c(F)c1-c1cccc(Cl)c1` [Example A-057, {1-[5-(3′-chloro-2-fluoro-6-methoxy-biphenyl-3-ylmethyl)-pyridin-2-yl]-ureido}-acetic acid], the IC50 against hPDE4B and on hPDE4D was below 5 µM in each case.
Take `COc1ccc(Cc2nnn[nH]2)c(F)c1-c1cccc(Cl)c1` [Example A-058, 5-(3′-Chloro-2-fluoro-6-methoxy-biphenyl-3-ylmethyl)-1H-tetrazole]: the IC50 lay in the range of 20 to 40 µM on hPDE4B and 5 to 20 µM against hPDE4D.
Taken in the same sequence, the figures for `COc1ccc(Cn2cnc(C(=O)O)c2)c(F)c1-c1cccc(Cl)c1` [Example A-059, 1-(3′-Chloro-2-fluoro-6-methoxy-biphenyl-3-ylmethyl)-1H-imidazole-4-carboxylic acid] were 5 to 20 µM and below 5 µM.
Taken in the same sequence, the figures for `COc1ccc(Cn2cncc2C(=O)O)c(F)c1-c1cccc(Cl)c1` [Example A-060, 3-(3′-Chloro-2-fluoro-6-methoxy-biphenyl-3-ylmethyl)-3H-imidazole-4-carboxylic acid] were 5 to 20 µM and below 5 µM.
Taken in the same sequence, the figures for `COc1ccc(Cc2ccc(N3CC[C@@H]3C(=O)O)nc2)c(F)c1-c1cccc(Cl)c1` [Example A-061, (R)-1-[5-(3′-chloro-2-fluoro-6-methoxy-biphenyl-3-ylmethyl)-pyridin-2-yl]-azetidine-2-carboxylic acid] were 5 to 20 µM and below 5 µM.
Turning to `COc1ccc(Cc2ccc(N3CCC[C@H]3C(=O)O)nc2)c(F)c1-c1cccc(Cl)c1` [Example A-063, (S)-1-[5-(3′-chloro-2-fluoro-6-methoxy-biphenyl-3-ylmethyl)-pyridin-2-yl]-pyrrolidine-2-carboxylic acid], the IC50 on hPDE4B and against hPDE4D was below 5 µM in each case.
For the molecule `COc1ccc(C(O)c2ccc(NC(=O)NNC(C)=O)cc2)c(F)c1-c1cccc(Cl)c1` (stereo not shown) [Example A-065, 1-acetic amido-3-{4-[(3′-chloro-2-fluoro-6-methoxy-biphenyl-3-yl)-hydroxy-deutero-methyl]-phenyl}-urea], the IC50 was 5 to 20 µM on hPDE4B (read-out: hPDE4B activity, enzyme-coupled NADH assay, absorbance at 340 nm) and below 5 µM at hPDE4D (read-out: hPDE4D activity, enzyme-coupled NADH assay, absorbance at 340 nm).
In the case of `COc1ccc(Cc2ccc(N3CC[C@H]3C(=O)O)nc2)c(F)c1-c1cccc(Cl)c1` [Example A-066, (S)-1-[5-(3′-chloro-2-fluoro-6-methoxy-biphenyl-3-ylmethyl)-pyridin-2-yl]-azetidine-2-carboxylic acid], the IC50 against hPDE4B and against hPDE4D was below 5 µM each time.
For the molecule `COc1ccc(Cc2ccc(N3CCC3C(=O)O)nc2)cc1-c1cccc(Cl)c1` (stereo not shown) [Example A-067, 1-[5-(3′-chloro-6-methoxy-biphenyl-3-ylmethyl)-pyridin-2-yl]-azetidine-2-carboxylic acid acetate salt], the values for the IC50 against hPDE4B and against hPDE4D were 5 to 20 µM and below 5 µM, respectively.
In the same order, the values of `COc1ccc(Cc2ccc(N3CCC[C@H]3C(=O)O)nc2)cc1-c1cccc(Cl)c1` [Example A-068, (S)-1-[5-(3′-chloro-6-methoxy-biphenyl-3-ylmethyl)-pyridin-2-yl]-pyrrolidine-2-carboxylic acid] are below 5 µM and below 5 µM.
Taken in the same sequence, the figures for `COc1ccc(Cc2ccc(N3CCCC(C(=O)O)C3)nc2)c(F)c1-c1cccc(Cl)c1` (stereo not shown) [Example A-070, 5′-(3′-Chloro-2-fluoro-6-methoxy-biphenyl-3-ylmethyl)-3,4,5,6-tetrahydro-2H-[1,2′]bipyridinyl-3-carboxylic acid] were 5 to 20 µM and below 5 µM.
